One may read the EC50 as the concentration giving half of the maximal effect. Broadly, the AUC(0-inf) is the area under the concentration-time curve extrapolated to infinity. A high value points to high exposure. The term Cmax denotes the peak of the concentration-time curve. What is called Tmax is the time from dosing to the highest level.

Experimental findings from patent publication EP4810493A1, “HETEROCYCLIC CARBONYL DERIVATIVE MODULATOR, PREPARATION METHOD THEREFOR, AND USE THEREOF” (Shanghai Hansoh Biomedical Co., Ltd., priority 2023, dated 2025) are described below.

Read-outs that look alike come from different tables or passages of the source.

Series [1] concerns the target T1, M4 receptor (Homo sapiens, UniProt P08173).
T1 construct: expressed in transfected cells
T1 sequence (P08173 1-479): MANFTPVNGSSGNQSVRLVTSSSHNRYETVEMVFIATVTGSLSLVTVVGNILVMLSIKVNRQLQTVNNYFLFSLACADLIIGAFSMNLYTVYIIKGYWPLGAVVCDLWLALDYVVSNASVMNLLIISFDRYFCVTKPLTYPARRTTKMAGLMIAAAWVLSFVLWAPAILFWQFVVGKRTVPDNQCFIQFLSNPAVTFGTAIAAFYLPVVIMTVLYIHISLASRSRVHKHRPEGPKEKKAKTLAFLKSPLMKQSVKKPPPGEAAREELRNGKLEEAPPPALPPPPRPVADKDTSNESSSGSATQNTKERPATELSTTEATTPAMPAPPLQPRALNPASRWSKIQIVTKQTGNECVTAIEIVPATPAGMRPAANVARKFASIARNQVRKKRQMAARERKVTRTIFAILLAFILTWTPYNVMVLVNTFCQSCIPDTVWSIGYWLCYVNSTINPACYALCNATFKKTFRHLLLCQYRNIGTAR
Put plainly: Calcium flux (FLIPR) potentiation assay in cells stably expressing M4 receptor. Type of series: cell-based. An excerpt:
Test example 1. Determination of the effect of the compounds of the present invention on calcium current in cells stably expressing M1-M5 receptors
To detect the potentiating effect of compounds on calcium flux activity in CHO-K1/human M1/3/5 and CHO-K1/Gα15 M2/4 cells.
384-well assay plate, 384-well plate, FLIPR Tip, FLIPR Penta plate reader, Dispendix non-contact nanoliter dispensing system (liquid handling workstation), liquid handler.
Ham's F-12 Nutrient Mix, foetal bovine serum, P/S (Gibco: 15140122), HBSS (Gibco: 14025076), HEPES (Gibco: 15630080), FLIPR calcium 6 assay kit (Molecular Devices: R8190), Probenecid (PBA) (Invitrogen: P36400), Acetylcholine chloride (Sigma: A6625-25G) Complete culture medium: DMEM + 10% FBS + 1X P/S; Cell seeding medium: DMEM + 10% FBS + 1X PS; Assay buffer 1: 1X HBSS + 20 mM HEPES +2.5 mM Probenecid; Assay buffer 2: 1X HBSS + 20 mM HEPES; Cell line: CHO-K1/M1; CHO-K1/M2/Gα15; CHO-K1/M3; CHO-K1/M4/Gα15; CHO-K1/M5.
FLIPR calcium 6 assay kit: Component A was dissolved in Assay buffer 1, and the mixture was shaken for 1-2 min, sub-packaged and stored at -20°C.
• 1) CHO-K1/M1; CHO-K1/M2/Gα15; CHO-K1/M3; CHO-K1/M4/Gα15; and CHO-K1/M5 cell lines were cultured separately in complete culture medium at 37°C, 5% CO2 to 70%-90% confluency. • 2) The cells were digested and resuspended in cell seeding medium, 5,000 cells/well/20 µL were seeded into a 384-well cell culture plate, and the cells were cultured at 37°C, 5% CO2 for 24 hours. • 3) The cell culture plate was taken out of the CO2 incubator and equilibrated at room temperature for 10 minutes. • 4) Component A solution was removed and allowed to equilibrate to room temperature. 20 µL of Component A solution was added to each well of the cell culture plate, and incubated at room temperature in the dark for 1 hour. • 5) Acetylcholine chloride (ACh), a muscarinic receptor agonist, was prepared in Assay buffer 2 at EC20/EC100 concentrations; subsequently, 30 µL of the prepared muscarinic receptor agonist was added to a 384-well agonist plate (PE: 6008590) using a Multidrop Combi; the working solutions of the positive control compound and the test compound were serially diluted at a 3.16-fold gradient and dispensed (450 nL) into a 384-well compound plate (PE: 6008590) using the Dispendix liquid handling workstation; 30 µL of Assay buffer 2 was added to the 384-well compound plate (PE: 6008590) using the Multidrop Combi; the positive control compound and the test compound were diluted to 6X, mixed by shaking, and placed at room temperature until use. • 6) 10 µL of the diluted 6X compound was added to the assay wells of the corresponding 384-well cell plate using the FLIPR Penta, followed by a 2-minute incubation. • 7) 10 µL of the prepared muscarinic receptor agonist was added to the assay wells of the corresponding 384-well cell plate using the FLIPR Penta, with simultaneous data acquisition.
FLIPR Penta was used to read and collect the fluorescence signal value (RFU). The maximum RFU value was used to calculate the percent activation data based on the readings of the Low control (DMSO control group) and High control (ACh EC100) experimental groups {% activation rate = (RFUsample - RFUlow control) / (RFUhigh control - RFUlow control)×100}. The test compound was diluted 3.16X in the reaction system to generate 11 concentration points ranging from 30 µM to […].
For orientation: Calcium flux is commonly read through the fluorescence of an indicator in the cells.

Series [2] can be described thus: Pharmacokinetic determination in SD rats. Particulars: rat, in vivo, po, male SD rats, p.o. 5 mg/kg; for MRT inf: read-out: MRT 0-∞. Here is the method: To investigate the pharmacokinetic behaviours of the example compounds in both plasma and brain of SD rats (test animals) following oral administration at a dose of 5 mg/kg.
2.1 Test drugs: The example compounds of the present invention, made in house.
2.2 Test animals: SD Rat, male.
24 SD Rats, male; p.o. respectively at a dose of 5 mg/kg and an administration volume of 10 mL/kg after the rats were fasted overnight.
Formulation of a drug for oral administration: 0.5% CMC-Na (1% Tween 80).
0.50 g of sodium carboxymethyl cellulose (CMC-Na, viscosity: 800-1200 Cps) was weighed and dissolved in 99 mL of purified water, and 1 ml of Tween 80 was added. The components were mixed thoroughly under stirring to form a clear solution.
The example compound was weighed into a 100 mL glass vial, 80 mL of the solution was added, and the mixture was subjected to ultrasound treatment for 10 minutes to obtain a homogeneous suspension with a concentration of 0.5 mg/mL.
After the test animals were euthanised by CO2, blood samples were collected from the heart and brain tissues were harvested at 0.25 h, 0.5 h, 1 h, 2 h, 4 h, 6 h, 8 h, and 24 h post-dose. Blood was placed in EDTA-2K tubes, and centrifuged at 6000 rpm for 6 min at 4°C to separate the plasma. Brain tissues were rinsed with pre-cold PBS, blotted dry, and weighed. Both plasma and brain samples were stored at -80°C. The animals were fed 4 h after administration.
• 3) 40 uL of plasma sample was precipitated with 160 uL of acetonitrile, mixed, and centrifuged at 3500 × g for 5-20 min. Brain tissues were diluted, homogenised and centrifuged. • 4) 100 uL of the treated supernatant solution was taken for LC/MS/MS analysis to determine the concentration of the test compounds.
• Liquid phase conditions: Shimadzu LC-20AD pump • Mass spectrometry conditions: AB Sciex API 4000 mass spectrometer • Chromatographic column: Phenomenex Gemiu 5 um C18 50 × 4.6 mm • Mobile phase: solution A: 0.1% formic acid in water, solution B: acetonitrile • Flow rate: 0.8 mL/min • Elution time: 0-4.0 min, with eluents as follows:
The main pharmacokinetic parameters were calculated using WinNonlin 8.1.

The mark [3] stands for this setting: CHO-K1/M4/Gα15 cells, potentiation of acetylcholine (EC20) calcium flux, read-out: M4 FLIPR EC50.

For `COc1cc(N2CC(CC(=O)N3Cc4c(C)c(C)n5ncnc5c4C3)C2)ccn1` [Example 236], the EC50 in series [1] (setting [3]) worked out at 0.0491 µM. In series [2], the AUC(0-inf) stood at 6710 ng·h/mL, the peak level (Cmax) was 1090 ng/mL, the Tmax worked out at 1.5 h and the MRT inf was 4.6 h.

In the case of `Cc1c2c(n3ncnc3c1Cl)CN(C(=O)CC1CN(c3ncc(C(F)(F)F)cn3)C1)C2` [Example 317, 1-(4-Chloro-5-methyl-6,8-dihydro-7H-pyrrolo[3,4-e][1,24]triazolo[1,5-a]pyridin-7-yl)-2-(1-(5-(trifluoromethyl)pyrimidin-2-yl)azetidin-3-yl)ethan-1-one], the EC50 in series [1] (setting [3]) was found to be 0.0169 µM. Also, in series [2], the AUC(0-inf) was determined as 26700 ng·h/mL, the Cmax came out at 2140 ng/mL, the Tmax was found to be 4 h and the MRT inf was found to be 11.2 h.

As to `CCOc1ccc(N2CC(CC(=O)N3Cc4c(C)c(C)n5ncnc5c4C3)C2)cn1` [Example 304, 1-(5,6-Dimethyl-7,9-dihydro-8H-pyrrolo[3,4-c][1,2,4]triazolo[1,5-a]pyridin-8-yl)-2-(1-(6-ethoxypyridin-3-yl)azetidin-3-yl)ethan-1-one], the EC50 in series [1] (setting [3]) was 0.0269 µM. Further, in series [2], the AUC(0-inf) worked out at 4080 ng·h/mL, the Cmax came out at 2380 ng/mL, the Tmax worked out at 0.5 h and the MRT inf turned out to be 1.32 h.

With `Cc1c2c(c3ncnn3c1C)CN(C(=O)OC1CN(c3ccc4nc(C(F)F)cn4n3)C1)C2` [Example 191], the EC50 in series [1] (setting [3]) came out at 0.031 µM. Further, in series [2], the AUC(0-inf) was 16100 ng·h/mL, the peak level (Cmax) was 2840 ng/mL, the Tmax was found to be 2 h and the MRT inf was 3.9 h.

Turning to `Cc1c2c(c3ncnn3c1C)CN(C(=O)CC1CN(c3ccnc(OC4CC4)c3)C1)C2` [Example 188], the EC50 in series [1] (setting [3]) came to 0.0206 µM. Further, in series [2], the AUC(0-inf) came out at 3170 ng·h/mL, the Cmax was determined as 967 ng/mL, the Tmax was determined as 1 h and the MRT inf came out at 2.6 h.

For `Cc1c2c(c3nccn3c1C)CN(C(=O)OC1CN(c3ccnc(C(F)F)c3)C1)C2` [Example 141], the EC50 in series [1] (setting [3]) amounted to 0.0393 µM. Also, in series [2], the AUC(0-inf) was 8540 ng·h/mL, the Cmax came out at 3210 ng/mL, the Tmax is 0.5 h and the MRT inf came out at 1.7 h.

With `Cc1c2c(c3ccnn3c1C)CN(C(=O)CC1CN(c3ccnc(C(F)(F)F)c3)C1)C2` [Example 76, 1-(4,5-Dimethyl-2,3-dihydro-1H-pyrrolo[4,3-c]pyrazolo[1,5-a]pyridin-2-yl)-2-{1-[2-(trifluoromethyl)pyridin-4-yl]azetidin-3-yl}ethan-1-one], the EC50 in series [1] (setting [3]) is 0.0404 µM. Moreover, in series [2], the AUC(0-inf) was 6150 ng·h/mL, the Cmax was found to be 1090 ng/mL, the Tmax came to 2 h and the MRT inf was found to be 3.9 h.

For `Cc1c2c(n3ncnc3c1Cl)CN(C(=O)CC1CN(c3ncc(F)cn3)C1)C2` [Example 346, 1-(4-Chloro-5-methyl-6,8-dihydro-7H-pyrrolo[3,4-e][1,2,4]triazolo[1,5-a]pyridin-7-yl)-2-(1-(5-fluoropyrimidin-2-yl)azetidin-3-yl)ethan-1-one], in series [1] (setting [3]), the EC50 is 0.0326 µM. Besides, in series [2], the total exposure AUC(0-inf) worked out at 11400 ng·h/mL, the concentration peaked (Cmax) at 1460 ng/mL, the Tmax was determined as 1 h and the MRT inf amounted to 5.02 h.

Consider `Cc1c2c(c3ncnn3c1C)CN(C(=O)CC1CN(c3ccc4nc(C(F)F)cn4n3)C1)C2` [Example 189], for which the EC50 in series [1] (setting [3]) is 0.0133 µM. For the same molecule, in series [2], the AUC(0-inf) was 3220 ng·h/mL, the Cmax came to 1040 ng/mL, the Tmax is 1 h and the MRT inf was determined as 2.6 h.

In the case of `Cc1cc2ncnn2c2c1CN(C(=O)CC1CN(c3ncc(C(F)(F)F)cn3)C1)C2` [Example 331], the EC50 in series [1] came out at 0.101 µM. Further, in series [2], the AUC(0-inf) was 10700 ng·h/mL, the Cmax was 944 ng/mL, the Tmax came to 2 h and the MRT inf was determined as 6.8 h.

As to `Cc1c2c(c3ncnn3c1C)CN(C(=O)CC1CN(c3ccc4c(cnn4C)c3)C1)C2` [Example 269], in series [1] (setting [3]), the EC50 turned out to be 0.0871 µM. For the same molecule, in series [2], the AUC(0-inf) is 3640 ng·h/mL, the peak level (Cmax) was 1330 ng/mL, the Tmax is 0.83 h and the MRT inf is 2 h.
